The source made the active and inactive calls. The rule behind the calls is not given here.

Data set [1] is filed under the species Homo sapiens. Put plainly: Stimulation of immune response in human pDC assessed as induction of IFN-gamma production at 150 ug/ml after 24 hrs. It counts as functional.
For data set [2], the system named is PBMC. Put plainly: Stimulation of immune response in human PBMC assessed as induction of IL12 production at 150 ug/ml after 24 hrs. It counts as functional, cell-based.
The subject of data set [3] is PBMC. Put plainly: Stimulation of immune response in human PBMC assessed as induction of IL8 production at 150 ug/ml after 24 hrs. The format is functional, cell-based.
Data set [4] relates to PBMC. The data set is described as follows: Stimulation of immune response in human PBMC assessed as induction of MIP1alpha production at 150 ug/ml after 24 hrs. It counts as functional, cell-based.
The test system of data set [5] is PBMC. Put plainly: Stimulation of immune response in human PBMC assessed as induction of IL1-beta production at 150 ug/ml after 24 hrs. It counts as functional, cell-based.
The species entered for data set [6] is Homo sapiens. Put plainly: Stimulation of immune response in human pDC assessed as induction of TNFalpha production at 150 ug/ml after 24 hrs. The format is functional.
For data set [7], the target named is T1, Toll-like receptor 8 (Homo sapiens) (UniProt Q9NR97).
T1 sequence (whole entry): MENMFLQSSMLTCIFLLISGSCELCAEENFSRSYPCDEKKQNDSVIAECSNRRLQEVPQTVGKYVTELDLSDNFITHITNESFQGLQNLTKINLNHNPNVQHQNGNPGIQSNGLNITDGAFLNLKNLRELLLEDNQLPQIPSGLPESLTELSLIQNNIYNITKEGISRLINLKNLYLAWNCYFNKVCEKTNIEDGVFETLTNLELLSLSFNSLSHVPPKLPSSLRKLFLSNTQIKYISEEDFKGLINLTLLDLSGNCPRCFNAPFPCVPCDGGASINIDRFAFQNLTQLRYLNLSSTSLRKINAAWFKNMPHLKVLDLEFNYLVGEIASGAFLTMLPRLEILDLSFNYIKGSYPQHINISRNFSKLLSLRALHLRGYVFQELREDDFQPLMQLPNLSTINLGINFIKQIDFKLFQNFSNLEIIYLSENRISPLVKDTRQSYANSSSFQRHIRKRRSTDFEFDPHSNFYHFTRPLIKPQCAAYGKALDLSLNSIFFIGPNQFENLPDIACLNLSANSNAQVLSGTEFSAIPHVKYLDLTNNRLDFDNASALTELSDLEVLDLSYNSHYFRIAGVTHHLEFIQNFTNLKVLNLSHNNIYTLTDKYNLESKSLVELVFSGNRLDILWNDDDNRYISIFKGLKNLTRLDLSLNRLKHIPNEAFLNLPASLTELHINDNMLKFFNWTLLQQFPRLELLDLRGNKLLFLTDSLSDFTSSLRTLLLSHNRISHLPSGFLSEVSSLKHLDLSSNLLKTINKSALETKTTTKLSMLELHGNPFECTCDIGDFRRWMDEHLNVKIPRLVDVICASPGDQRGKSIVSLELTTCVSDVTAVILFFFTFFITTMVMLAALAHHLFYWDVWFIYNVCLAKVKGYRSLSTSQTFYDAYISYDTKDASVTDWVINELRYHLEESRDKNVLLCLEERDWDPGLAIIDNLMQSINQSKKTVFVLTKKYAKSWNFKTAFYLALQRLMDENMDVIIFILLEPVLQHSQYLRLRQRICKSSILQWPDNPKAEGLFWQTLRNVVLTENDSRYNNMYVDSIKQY
The data set is described as follows: Agonist activity at human TLR8 expressed in HEK293XL cells assessed as NF-kappaB activation after 18 hrs. It counts as functional, cell-based.

The target of data set [8] is T2, Toll-like receptor 7 (Homo sapiens) (UniProt Q9NYK1).
T2 sequence (whole entry): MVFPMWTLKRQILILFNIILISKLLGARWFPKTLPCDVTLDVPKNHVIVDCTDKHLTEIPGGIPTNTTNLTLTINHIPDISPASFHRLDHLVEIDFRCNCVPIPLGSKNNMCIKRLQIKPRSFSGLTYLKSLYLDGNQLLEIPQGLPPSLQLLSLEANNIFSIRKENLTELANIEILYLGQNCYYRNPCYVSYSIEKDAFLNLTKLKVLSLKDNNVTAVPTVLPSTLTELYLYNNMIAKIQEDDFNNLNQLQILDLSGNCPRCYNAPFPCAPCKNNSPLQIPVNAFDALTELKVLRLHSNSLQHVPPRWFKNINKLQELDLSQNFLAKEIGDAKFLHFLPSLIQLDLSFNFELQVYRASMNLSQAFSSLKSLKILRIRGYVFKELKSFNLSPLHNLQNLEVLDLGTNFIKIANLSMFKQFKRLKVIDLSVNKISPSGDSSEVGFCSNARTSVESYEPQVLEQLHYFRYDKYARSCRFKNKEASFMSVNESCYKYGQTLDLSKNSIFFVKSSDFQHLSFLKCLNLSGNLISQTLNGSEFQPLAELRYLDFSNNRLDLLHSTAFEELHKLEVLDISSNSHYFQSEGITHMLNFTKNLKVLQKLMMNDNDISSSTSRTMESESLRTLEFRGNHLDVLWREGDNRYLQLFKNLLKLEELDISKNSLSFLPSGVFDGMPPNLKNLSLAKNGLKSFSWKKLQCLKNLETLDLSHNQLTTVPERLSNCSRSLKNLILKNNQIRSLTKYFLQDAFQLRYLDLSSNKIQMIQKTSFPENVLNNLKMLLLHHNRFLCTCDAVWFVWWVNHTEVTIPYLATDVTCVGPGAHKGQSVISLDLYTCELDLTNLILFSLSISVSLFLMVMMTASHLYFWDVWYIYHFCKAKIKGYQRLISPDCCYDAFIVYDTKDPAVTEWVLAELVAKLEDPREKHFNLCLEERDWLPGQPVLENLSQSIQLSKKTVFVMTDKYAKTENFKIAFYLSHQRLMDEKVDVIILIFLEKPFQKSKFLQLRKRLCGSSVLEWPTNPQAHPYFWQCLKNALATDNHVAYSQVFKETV
Put plainly: Agonist activity at human TLR7 expressed in HEK293XL cells assessed as NF-kappaB activation at 300 ug/ml after 18 hrs. It counts as functional, cell-based.

The test system of data set [9] is PBMC. The data set is described as follows: Stimulation of immune response in human PBMC assessed as induction of IFNalpha production at 150 ug/ml after 24 hrs. The format is functional, cell-based.
The test system of data set [10] is Mus musculus. Put plainly: Stimulation of immune response in C57BL/6 mouse assessed as induction of serum IL12 production at 50 mg/kg, sc after 2 hrs by luminex multiplex assay. The format is functional, organism-based. Details: dose 50 mg/kg.
The subject of data set [11] is PBMC. Put plainly: Stimulation of immune response in human PBMC assessed as induction of IFN-gamma production at 150 ug/ml after 24 hrs. It counts as functional, cell-based.
The subject of data set [12] is PBMC. The data set is described as follows: Stimulation of immune response in human PBMC assessed as induction of RANTES production at 150 ug/ml after 24 hrs. The format is functional, cell-based.
Data set [13] has as its system PBMC. The data set is described as follows: Stimulation of immune response in human PBMC assessed as induction of TNFalpha production at 150 ug/ml after 24 hrs. The format is functional, cell-based.
The species entered for data set [14] is Homo sapiens. Put plainly: Stimulation of immune response in human pDC assessed as induction of IL12 production at 150 ug/ml after 24 hrs. The format is functional.
The nature of data set [15]: Stability in human serum assessed as full-length compound remaining after 10 mins by anion-exchange HPLC. The settings on record: read-out: Stability. The format is ADME, cell-free.
For data set [16], the species on record is Homo sapiens. Put plainly: Stimulation of immune response in human pDC assessed as induction of MIP1beta production at 150 ug/ml after 24 hrs. It counts as functional.
Data set [17] relates to PBMC. Put plainly: Stimulation of immune response in human PBMC assessed as induction of IL10 production at 150 ug/ml after 24 hrs. The format is functional, cell-based.
Data set [18] concerns PBMC. Put plainly: Stimulation of immune response in human PBMC assessed as induction of MIP1beta production at 150 ug/ml after 24 hrs. It counts as functional, cell-based.
Data set [19] concerns PBMC. The data set is described as follows: Stimulation of immune response in human PBMC assessed as induction of IL2R level at 150 ug/ml after 24 hrs. It counts as functional, cell-based.
The species entered for data set [20] is Homo sapiens. Put plainly: Stimulation of immune response in human pDC assessed as induction of IFNalpha production at 150 ug/ml after 24 hrs. The format is functional.
The species entered for data set [21] is Homo sapiens. The data set is described as follows: Stimulation of immune response in human pDC assessed as induction of MIP1alpha production at 150 ug/ml after 24 hrs. It counts as functional.
Data set [22] deals with PBMC. Put plainly: Stimulation of immune response in human PBMC assessed as induction of MCP1 production at 150 ug/ml after 24 hrs. The format is functional, cell-based.

`Nc1ccn([C@@H]2O[C@H](COP(=O)(S)O[C@H]3[C@@H](O)[C@H](n4ccc(=O)[nH]c4=O)O[C@@H]3COP(=O)(S)O[C@H]3[C@@H](O)[C@H](n4ccc(=O)[nH]c4=O)O[C@@H]3COP(=O)(S)O[C@H]3[C@@H](O)[C@H](n4cnc5c(=O)[nH]c(N)nc54)O[C@@H]3COP(=O)(S)O[C@H]3[C@@H](O)[C@H](n4ccc(=O)[nH]c4=O)O[C@@H]3COP(=O)(S)O[C@H]3[C@@H](O)[C@H](n4cnc5c(=O)[nH]c(N)nc54)O[C@@H]3COP(=O)(S)OCC(O)COP(=O)(S)O[C@H]3[C@@H](O)[C@H](n4cnc5c(=O)[nH]c(N)nc54)O[C@@H]3COP(=O)(S)O[C@H]3[C@@H](O)[C@H](n4ccc(=O)[nH]c4=O)O[C@@H]3COP(=O)(S)O[C@H]3[C@@H](O)[C@H](n4cnc5c(=O)[nH]c(N)nc54)O[C@@H]3COP(=O)(S)O[C@H]3[C@@H](O)[C@H](n4ccc(=O)[nH]c4=O)O[C@@H]3COP(=O)(S)O[C@H]3[C@@H](O)[C@H](n4ccc(=O)[nH]c4=O)O[C@@H]3COP(=O)(S)O[C@H]3[C@@H](O)[C@H](n4ccc(N)nc4=O)O[C@@H]3COP(=O)(S)O[C@H]3[C@@H](O)[C@H](n4cnc5c(=O)[nH]c(N)nc54)O[C@@H]3COP(=O)(S)O[C@H]3[C@H](O)[C@H](n4ccc(=O)[nH]c4=O)O[C@@H]3COP(=O)(S)O[C@H]3[C@@H](O)[C@H](n4ccc(N)nc4=O)O[C@@H]3COP(=O)(S)O[C@H]3[C@@H](O)[C@H](n4cnc5c(=O)[nH]c(N)nc54)O[C@@H]3COP(=O)(S)O[C@H]3[C@H](O)[C@H](n4ccc(=O)[nH]c4=O)O[C@@H]3CO)[C@@H](OP(=O)(S)OC[C@H]3O[C@@H](n4cnc5c(=O)[nH]c(N)nc54)[C@H](O)[C@@H]3OP(=O)(S)OC[C@H]3O[C@@H](n4ccc(=O)[nH]c4=O)[C@@H](O)[C@@H]3OP(=O)(S)OC[C@H]3O[C@@H](n4ccc(N)nc4=O)[C@H](O)[C@@H]3OP(=O)(S)OC[C@H]3O[C@@H](n4cnc5c(=O)[nH]c(N)nc54)[C@H](O)[C@@H]3OP(=O)(S)OC[C@H]3O[C@@H](n4ccc(=O)[nH]c4=O)[C@@H](O)[C@@H]3OP(=O)(O)S)[C@H]2O)c(=O)n1` (some centres not stated): the result in [1], in [2], in data set [3], in [4], in data set [5] and in [6] was Active. Moreover, the outcome in data set [9], in [11], in [12], in [13], in data set [14] and in data set [16] was Active. For the same compound, the outcome in [17], in [18], in data set [19], in [21] and in data set [22] was Active. Besides, the Activity result in data set [7] was “Dose-dependent effect”. Besides, the outcome in data set [8], in data set [10] and in data set [20] was inactive. Further, the remaining at 10 min in data set [15] was 76%.

The values are drawn from ChEMBL document CHEMBL1151840, “Synthetic oligoribonucleotides containing arabinonucleotides act as agonists of TLR7 and 8” (Bioorg Med Chem Lett, 2009).
